Experimental findings from patent US8383624B2 (Abbott Laboratories, priority 2009, dated 2013) are described below.

T1 sequence (O00311 whole entry): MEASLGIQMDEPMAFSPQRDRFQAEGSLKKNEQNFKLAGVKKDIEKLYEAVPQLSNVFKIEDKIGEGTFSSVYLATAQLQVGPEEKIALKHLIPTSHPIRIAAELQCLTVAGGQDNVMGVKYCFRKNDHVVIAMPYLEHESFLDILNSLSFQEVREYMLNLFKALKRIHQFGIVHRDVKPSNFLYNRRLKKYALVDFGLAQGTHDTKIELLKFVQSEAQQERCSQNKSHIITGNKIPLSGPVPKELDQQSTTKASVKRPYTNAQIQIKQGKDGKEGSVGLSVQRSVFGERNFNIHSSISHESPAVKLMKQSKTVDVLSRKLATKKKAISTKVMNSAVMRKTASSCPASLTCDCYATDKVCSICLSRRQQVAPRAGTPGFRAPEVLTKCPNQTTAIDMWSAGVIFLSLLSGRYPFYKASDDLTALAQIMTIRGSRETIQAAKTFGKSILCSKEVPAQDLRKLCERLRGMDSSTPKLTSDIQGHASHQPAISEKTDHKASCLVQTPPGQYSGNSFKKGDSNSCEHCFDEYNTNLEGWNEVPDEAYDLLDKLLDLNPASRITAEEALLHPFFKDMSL
T1 sequence (Q9UBU7 whole entry partner): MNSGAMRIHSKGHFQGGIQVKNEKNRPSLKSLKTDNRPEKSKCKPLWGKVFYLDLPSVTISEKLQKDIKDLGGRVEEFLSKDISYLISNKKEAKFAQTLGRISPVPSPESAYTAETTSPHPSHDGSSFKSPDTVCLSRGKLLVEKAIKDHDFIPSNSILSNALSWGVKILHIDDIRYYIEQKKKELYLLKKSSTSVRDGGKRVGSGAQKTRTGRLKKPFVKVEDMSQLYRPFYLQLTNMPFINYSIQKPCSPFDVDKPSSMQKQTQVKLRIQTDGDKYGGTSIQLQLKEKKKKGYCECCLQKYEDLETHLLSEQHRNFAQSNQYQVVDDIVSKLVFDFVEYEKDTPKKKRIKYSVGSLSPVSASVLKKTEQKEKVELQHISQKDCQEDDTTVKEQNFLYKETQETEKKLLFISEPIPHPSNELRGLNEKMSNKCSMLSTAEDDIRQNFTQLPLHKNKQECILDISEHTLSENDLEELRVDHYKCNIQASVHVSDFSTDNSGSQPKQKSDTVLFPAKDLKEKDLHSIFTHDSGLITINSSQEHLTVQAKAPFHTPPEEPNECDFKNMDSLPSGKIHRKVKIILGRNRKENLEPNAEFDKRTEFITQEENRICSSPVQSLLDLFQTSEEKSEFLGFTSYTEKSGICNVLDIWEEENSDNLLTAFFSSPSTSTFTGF

The first assay concerns the target T1, Cdc7 (BEV coexpressed huCDC7/DBF4) (Homo sapiens, UniProt O00311).
T1 construct: made in house; host or cells: baculovirus expression vector (BEV) system
As to the kind of experiment: Cdc7 enzyme inhibition assay ([33P]-ATP, biotinylated peptide substrate, FlashPlate). The conditions noted are these: Table 1; Ki from IC50 assuming ATP-competitive inhibition, apparent ATP Km 0.7 μM, 1 μM ATP. The class given is biochemical. Here is the method: Cdc7 (BEV coexpressed huCDC7/DBF4) is prepared internally. Cdc7 assays are conducted as follows with final concentrations as listed. In 384-well v-bottom polypropylene plates, 6 L compound (2% DMSO), is mixed with 6 µL of Cdc7 (2 μg/mL), and Jerini peptide substrate A-All (biotin-C6linker-TPSDSLIYDDGLS) (2 μM), followed by immediate initiation with 6 L […] (1 μM, 20 mCi/μmol) using a reaction buffer comprising 25 mM HEPES, pH 7.5, 1 mM DTT, 10 mM MgCl2, 100 μM Na3VO4, 0.075 mg/ml Triton X-100. Reactions are quenched after 1 hr by the addition of 90 L stop buffer (50 mM EDTA, 2M NaCl). 85 μL of the stopped reactions are transferred to 384-well streptavidin-coated plates (FlashPlate Plus, Perkin Elmer), incubated 30 minutes at room temperature and washed 3 times with 0.05% Tween-20/PBS using an ELX-405 automated plate washer (BioTek), and counted on a TopCount Scintillation Plate Reader (Packard). IC50 values are determined via non-linear regression fitting of enzyme inhibition data and corresponding Ki values are generated assuming ATP-competitive (equilibrium) inhibition and using the experimentally determined apparent ATP Km of 0.7 μM (as determined using the above assay condition, but varying ATP). Table 1 depicts enzyme inhibition data (Ki) for exemplary compounds. In Table 1, “A” represents a Ki of less than 10 nM, “B” represents a Ki of between 10 nM and 100 nM, and “C” represents a Ki of greater than 100 nM.
Table 2 depicts enzyme inhibition data (Ki) for examples 27-43 using the same assay as example 26. In Table 2, “A” represents a Ki of less than 10 nM, “B” represents a Ki of between 10 nM and 100 nM, and “C” represents a Ki of greater than 100 nM.
Take `O=C1CCC(C(=O)N[C@H]2CC[C@H](Nc3cc(-c4c[nH]c5nccnc45)cc(Cl)n3)CC2)N1` (relative stereo) [Example 20, N-(trans 4-(6-chloro-4-(5H-pyrrolo[3,2-b]pyrazin-7-yl)pyridin-2-ylamino)cyclohexyl)-5-oxopyrrolidine-2-carboxamide]: the Ki was below 10 nM.
`CN(C)C1CCCC(Nc2cc(-c3c[nH]c4nccnc34)cc(Cl)n2)C1` (stereo not drawn) [Example 12, N^1-(6-chloro-4-(5H-pyrrolo[2,3-b]pyrazin-7-yl)pyridin-2-yl)-N^3,N^3-dimethylcyclohexane-1,3-diamine]: the Ki was below 10 nM.
Regarding `CC(C)(CN)CNc1cc(-c2c[nH]c3nccnc23)cc(Cl)n1` [Example 19, N^1-(6-chloro-4-(5H-pyrrolo[2,3-b]pyrazin-7-yl)pyridin-2-yl)-2,2-dimethylpropane-1,3-diamine], the Ki is below 10 nM.
As for `CS(=O)(=O)N1CCCC(Nc2cc(-c3c[nH]c4nccnc34)cc(Cl)n2)C1` (stereo not drawn) [Example 6, 6-chloro-N-(1-(methylsulfonyl)piperidin-3-yl)-4-(5H-pyrrolo[2,3-b]pyrazin-7-yl)pyridin-2-amine], the Ki is below 10 nM.
Consider `CCn1cc(-c2cc(Cl)nc(N[C@H]3CC[C@H](NC(=O)C4CC4)CC3)c2)c2nccnc21` [Example 22], for which the Ki was above 100 nM.
On to `CN(C)[C@H]1CC[C@H](Nc2cc(-c3c[nH]c4nccnc34)cc(Cl)n2)CC1` [Example 9, trans-N^1-(6-chloro-4-(5H-pyrrolo[2,3-b]pyrazin-7-yl)pyridin-2-yl)-N^4,N^4-dimethylcyclohexane-1,4-diamine], for which the Ki is below 10 nM.
In the case of `Nc1cc(-c2c[nH]c3nccnc23)cc(Cl)n1` [Example 18, 6-chloro-4-(5H-pyrrolo[2,3-b]pyrazin-7-yl)pyridin-2-amine], the Ki is below 10 nM.
In the case of `N[C@H]1CC[C@H](Nc2cc(-c3c[nH]c4nccnc34)cc(Cl)n2)CC1` [Example 7, Trans N^1-(6-chloro-4-(5H-pyrrolo[2,3-b]pyrazin-7-yl)pyridin-2-yl)cyclohexane-1,4-diamine], the Ki was below 10 nM.
With `O=C(Nc1cc(-c2c[nH]c3nccnc23)cc(Cl)n1)C1CCNCC1` [Example 16, N-(6-chloro-4-(5H-pyrrolo[2,3-b]pyrazin-7-yl)pyridin-2-yl)piperidine-4-carboxamide], the Ki is below 10 nM.
As to `CCCCC(=O)Nc1cc(-c2c[nH]c3nccnc23)cc(Cl)n1` [Example 14, N-(6-chloro-4-(5H-pyrrolo[2,3-b]pyrazin-7-yl)pyridin-2-yl)pentanamide], the Ki is below 10 nM.
Same read-out and setting: in the case of `CS(=O)(=O)NC1CCCC(Nc2cc(-c3c[nH]c4nccnc34)cc(Cl)n2)C1` (stereo not drawn) [Example 13, N-(3-(6-chloro-4-(5H-pyrrolo[2,3-b]pyrazin-7-yl)pyridin-2-ylamino)cyclohexyl)methanesulfonamide] it was below 10 nM.
As for `O=C(C1CC1)N1CCCC(Nc2cc(-c3c[nH]c4nccnc34)cc(Cl)n2)C1` (stereo not drawn) [Example 5, (3-(6-chloro-4-(5H-pyrrolo[2,3-b]pyrazin-7-yl)pyridin-2-ylamino)piperidin-1-yl)(cyclopropyl)methanone], the Ki was below 10 nM.
For `CN(C)CC(=O)NC1CCCC(Nc2cc(-c3c[nH]c4nccnc34)cc(Cl)n2)C1` (stereo not drawn) [Example 23, N-(3-(6-chloro-4-(5H-pyrrolo[2,3-b]pyrazin-7-yl)pyridin-2-ylamino)cyclohexyl)-2-(dimethylamino)acetamide], the Ki was below 10 nM.
Consider `O=C(N[C@H]1CC[C@H](Nc2cc(-c3c[nH]c4nccnc34)cc(Cl)n2)CC1)C1CC1` [Example 8, N-(trans-4-(6-chloro-4-(5H-pyrrolo[2,3-b]pyrazin-7-yl)pyridin-2-ylamino)cyclohexyl)cyclopropanecarboxamide], for which the Ki is below 10 nM.
Consider `CCn1cc(-c2cc(Cl)nc(NC3CCCC(NC(=O)CN(C)C)C3)c2)c2nccnc21` (stereo not drawn) [Example 24], for which the Ki was above 100 nM.

The same assay, now with this note: Table 2; same assay as example 26.
`Clc1cc(-c2c[nH]c3ncc(-c4cnccn4)nc23)cc(NC2CCCCC2)n1` [Example 41, 6-chloro-N-cyclohexyl-4-[2-(pyrazin-2-yl)-5H-pyrrolo[2,3-b]pyrazin-7-yl]pyridin-2-amine]: the Ki was below 10 nM.
`COc1cc(N2CCC(N3CCN(C)CC3)CC2)ccc1Nc1cnc2[nH]cc(-c3cc(Cl)nc(NC4CCCCC4)c3)c2n1` [Example 42, 7-[2-chloro-6-(cyclohexylamino)pyridin-4-yl]-N-{2-methoxy-4-[4-(4-methylpiperazin-1-yl)piperidin-1-yl]phenyl}-5H-pyrrolo[2,3-b]pyrazin-2-amine] came in with a Ki below 10 nM.
`O[C@H]1CC[C@H](Nc2cc(-c3c[nH]c4ncc(Br)nc34)cc(Cl)n2)CC1` [Example 34, trans 4-{[4-(2-bromo-5H-pyrrolo[2,3-b]pyrazin-7-yl)-6-chloropyridin-2-yl]amino}cyclohexanol] registered a Ki below 10 nM.
In the case of `O=C1CC(C(=O)N[C@H]2CC[C@H](Nc3cc(-c4c[nH]c5nccnc45)cc(Cl)n3)CC2)CC(=O)N1` [Example 31, N-(trans-4-{[6-chloro-4-(5H-pyrrolo[2,3-b]pyrazin-7-yl)pyridin-2-yl]amino}cyclohexyl)-2,6-dioxopiperidine-4-carboxamide], the Ki was below 10 nM.
Consider `Clc1cc(-c2c[nH]c3ncc(-c4ccccc4)nc23)cc(NC2CCCCC2)n1` [Example 38, 6-chloro-N-cyclohexyl-4-(2-phenyl-5H-pyrrolo[2,3-b]pyrazin-7-yl)pyridin-2-amine], for which the Ki is 10 to 100 nM.
Molecule `N#Cc1cnc2[nH]cc(-c3cc(Cl)nc(NC4CCCCC4)c3)c2n1` [Example 37, 7-[2-chloro-6-(cyclohexylamino)pyridin-4-yl]-5H-pyrrolo[2,3-b]pyrazine-2-carbonitrile] had a Ki below 10 nM.
For `Clc1cc(-c2c[nH]c3ncc(/C=C/c4ccncc4)nc23)cc(NC2CCCCC2)n1` [Example 43, 6-chloro-N-cyclohexyl-4-{2-[(E)-2-(pyridin-4-yl)ethenyl]-5H-pyrrolo[2,3-b]pyrazin-7-yl}pyridin-2-amine], the Ki was below 10 nM.
For `Clc1cc(-c2c[nH]c3ncc(Nc4ccccc4)nc23)cc(NC2CCCCC2)n1` [Example 39, 7-[2-chloro-6-(cyclohexylamino)pyridin-4-yl]-N-phenyl-5H-pyrrolo[2,3-b]pyrazin-2-amine], the Ki was in the range of 10 to 100 nM.
With `O=C(O)c1cnc2[nH]cc(-c3cc(Cl)nc(NC4CCCCC4)c3)c2n1` [Example 36, 7-[2-chloro-6-(cyclohexylamino)pyridin-4-yl]-5H-pyrrolo[2,3-b]pyrazine-2-carboxylic acid], the Ki is below 10 nM.
Molecule `CN1CCCC(Nc2cc(-c3c[nH]c4nccnc34)cc(Cl)n2)C1` (stereo not drawn) [Example 27, 6-chloro-N-(1-methylpiperidin-3-yl)-4-(5H-pyrrolo[2,3-b]pyrazin-7-yl)pyridin-2-amine] came in with a Ki below 10 nM.
On to `O=C(N[C@H]1CC[C@H](Nc2cc(-c3c[nH]c4nccnc34)cc(Cl)n2)CC1)[C@@H]1CCN1` [Example 30, (2S)—N-(trans-4-{[6-chloro-4-(5H-pyrrolo[2,3-b]pyrazin-7-yl)pyridin-2-yl]amino}cyclohexyl)azetidine-2-carboxamide], for which the Ki was below 10 nM.
On the same count and under the same terms, for `CN1CCCC(CNc2cc(-c3c[nH]c4nccnc34)cc(Cl)n2)C1` (stereo not drawn) [Example 28, 6-chloro-N-[(1-methylpiperidin-3-yl)methyl]-4-(5H-pyrrolo[2,3-b]pyrazin-7-yl)pyridin-2-amine] the value was below 10 nM.
